According to patent publication EP2305268A1, “A PHARMACEUTICAL COMPOSITION FOR TREATING DISEASE CAUSED BY IMMUNE DISTURBANCE AND THE EXTRACT FROM TUCKAHOE” (Sinphar Tian-li Pharmaceutical Co., Ltd. (Hangzhou), priority 2008, dated 2009):
“And” between values parts separate entries of the source, which are not always exact repeats. Identical values can stand only once.

How the values were obtained:
Type in all cases: in vivo, BALB/c mice
Eotaxin = Eotaxin level in BALF by Sandwich-ELISA; conditions: mean ± SD
Protocol: (§1) Mice in different groups were fed with a Poria extract or pure lanostane compound during the experimental period, and each mouse was subjected to an airway hyperresponsiveness test after one-month feeding, from which an important index reflecting the severe degree of the asthma of the mouse was determined. […] Further, a chemoattractant factor, Eotaxin, was an important observation factor in this example for observing whether the secretion of cytokines changed dramatically.
(§2) • (1) Experimental animal: Inbred BALB/c female mice were maintained by standard laboratory chow ad libitum. Room temperature was maintained at 19-24°C and relative humidity at 50-70%. […] Three minutes after the introduction an average value of AHR per minute was recorded. […] The value of Penh (pause of enhance) was calculated by collecting data derived from transducer (differential pressure transducer; Buxco) and preamplifier (MAX □, Buxco) in the system. The relative increase ratio of Penh was calculated as Penh% = Penhmethacholine/PenhPBS, wherein Penhmethacholine is the average value of Penh after the mice inhale 3 minutes of methacholine aerosol, and PenhPBS is the average value of Penh after the mice inhale 3 minutes of PBS aerosol. • (5) Bronchoalveolar lavage fluid (BALF) and lung histology: As all groups of mice had finished of AHR analysis, they were sacrificed on next day. […]

[1] = test system: OVA-sensitized asthmatic mice; experiment: Airway hyperresponsiveness (AHR) test, Buxco system, Penh after methacholine aerosol
Protocol: as §1, §2

[2] = test system: immune cells in BALF of OVA-sensitized mice; experiment: Percentage of subpopulations of immune cells in bronchoalveolar lavage fluid (BALF), Liu's stain cell count; conditions: % of total BALF cells, mean ± SD
Protocol: as §1
• (1) Experimental animal: Inbred BALB/c female mice were maintained by standard laboratory chow ad libitum. Room temperature was maintained at 19-24°C and relative humidity at 50-70%. Animal experiments were performed according to the Guidelines for the Care and Use of Laboratory Animals, Fu-Jen University, Taiwan. […] All mice were exposed to inhalate exposure to 8 ml of 2% OVA aerosols for a period of 20 minutes by placing them in a chamber using an ultrasonic nebulizer (DeVilbiss Pulmo-Aide, 5650D, USA), after receiving the second intraperitoneal injection. • (3) Grouping of the experimental animal: The 10 groups of OVA-sensitized asthmatic mice were separated into a non-treatment asthma group (As); treatment groups with the Poria extract prepared in Example 2 and pure compounds K1, K2 and K3 (1PCE, 1K1, 1K2, 1K3, 2PCE, 2K1, 2K2, and 2K3); and the control drug group (Pred). Each mouse in the treatment group of 1PCE group received daily 0.0372 mg of the ethanol extract PCE prepared in Example 2 (1PCE). 2PCE means mice were fed with two times of the dosage of PCE (0.0744 mg) of the 1PCE group. Each mouse in the treatment groups of 1K1, 1K2 and 1K3 received daily 0.0087 mg of K1, K2 and K3, respectively. 2K1, 2K2, and 2K3 mean mice werer fed with two times of the dosage of K1, K2 and K3 (0.0174 mg) in comparison with the 1K1, 1K2 and 1 K3 groups. Each mouse of the Pred group had been administrated with 0.1 mg of Prednisolone per day for 5 continuous days before the mouse was sacrificed. Above PCE, K1, K2, K3 and Prednisolone compounds were dissolved by 95% ethanol firstly, and finally in Phosphate Buffer Solution (PBS). Each mouse was administered 0.4 mL of total volume each time by gavage. • (4) Airway hyperresponsiveness test: An airway hyperresponsiveness (AHR) value increases proportionally with the severe degree of asthma, and thus a decrease of AHR value is an important index for determining whether asthma is being released. Each mouse in all groups was subjected to the AHR test next day following the 29th day of administering in the treatment groups on which the last inhalate exposure was conducted. The AHR was tested with Buxco system (Biosystem XA; Buxco Electronics Inc. Sharon, CT, USA), wherein the mouse was placed in a chamber, and aerosol of PBS or methacholine of different concentrations (25 mg/ml, and 50 mg/ml) was introduced into the chamber by using an ultrasonic nebulizer. Three minutes after the introduction an average value of AHR per minute was recorded. […] The value of Penh (pause of enhance) was calculated by collecting data derived from transducer (differential pressure transducer; Buxco) and preamplifier (MAX □, Buxco) in the system. The relative increase ratio of Penh was calculated as Penh% = Penhmethacholine/PenhPBS, wherein Penhmethacholine is the average value of Penh after the mice inhale 3 minutes of methacholine aerosol, and PenhPBS is the average value of Penh after the mice inhale 3 minutes of PBS aerosol. • (5) Bronchoalveolar lavage fluid (BALF) and lung histology: As all groups of mice had finished of AHR analysis, they were sacrificed on next day. The lung was immediately lavaged via the trachea cannula (18 GA, angiocath, B.D.) with 1 ml of Hank's balanced salt solution (HBSS, SH30016.01, Hyclone, USA), which contained 2% fetal bovine serum (FBS) and 2 mM 2Na-EDTA for three times. About 3 ml of BALF were collected.

[3] = groups 1K1, 1K2, 1K3: 0.0087 mg per mouse daily by gavage
[4] = groups 2K1, 2K2, 2K3: 0.0174 mg per mouse daily by gavage
[5] = Pred group: 0.1 mg Prednisolone per day for 5 continuous days before sacrifice

| SMILES | Eotaxin (Eotaxin; [3]) | Eotaxin (Eotaxin; [4]) | values of AHR in comparison with the As group ([1]; groups 1K1, 1K3: 0.0087 mg per mouse daily by gavage, methacholine 50mg/mL) | Eosinophil [2, 3] | Lymphocyte [2, 3] | Monocyte [2, 3] | Neutrophil [2, 3] | Eosinophil [2, 4] | Lymphocyte [2, 4] | Monocyte [2, 4] | Neutrophil [2, 4] | values of AHR in comparison with the As group [1, 5] | Monocyte [2, 5] | Neutrophil [2, 5] |
| --- | --- | --- | --- | --- | --- | --- | --- | --- | --- | --- | --- | --- | --- | --- |
| C=C(CC[C@@H](C(=O)O)[C@H]1[C@H](O)C[C@@]2(C)C3=CC[C@H]4C(C)(C)C(=O)CC[C@]4(C)C3=CC[C@]12C)C(C)C [K3] | significantly lower levels of Eotaxin and 21.1±10.4 pg/mL | 25.1 ± 12.0 pg/mL | significantly lower values ofAHR | 11.3±7.0% | 49.8±12.8% | 38.2±8.7% | 0.8±0.9% | 9.7±3.6% | 52.1±8.1% | 37.1±5.7% | 1.1±1.1% | – | – | – |
| C[C@]12C=CC(=O)C=C1CC[C@@H]1[C@@H]2[C@@H](O)C[C@@]2(C)[C@H]1CC[C@]2(O)C(=O)CO [Pred, Prednisolone, reference compound] | – | – | – | – | – | – | – | – | – | – | – | lower values of AHR but not statistically significant | 13.3±7.8% | 0.8±0.8% |
